Source: patent publication EP1333824B1, “TREATMENT OF SEXUAL DYSFUNCTION WITH BOMBESIN RECEPTOR ANTAGONISTS” (Warner-Lambert Company LLC, priority 2000, dated 2002)

What was measured:
Sprague Dawley male rats = assay: Sexual behaviour of fluoxetine-induced sexually dysfunctional male rats; type: in vivo, rat; settings: fluoxetine 20mg/kg i.p. 3 days (vs vehicle+vehicle)
Experimental: Sprague Dawley male rats (Charles River, UK) were kept, 4 rats per cage, in a reversed lighting regime (12:12 hours, lights off at 5.00 h), with free access to food and water. The rats were pre-selected by being presented with a receptive female at 4 days intervals, i.e. every third day (having 2 clear days between presentations) until completing 6-7 trials of baseline determination. The animals showing consistently vigorous behaviour (ejaculatory latencies <300s) were chosen for further experiments. Animals were treated for 3 consecutive days with either vehicle (water) or fluoxetine (20mg/kg, i.p., in a 2ml/kg dosing volume). […] All treatments were administered i.p. in a 1ml/kg volume, 1h before tests.
For all the sexual behaviour tests, the males were placed in an observation arena (50-60 cm diameter), starting 5 hours into the dark cycle and observed under red illumination. Three to 4 minutes after placing the male in the arena, a receptive female (ovariectomised, bearing a 7 mm Silastic implant of oestradiol benzoate) was introduced to the arena and the following parameters noted: Mount Latency: time (in seconds) taken between introduction of female and first mount. A maximum time of 15 minutes (900 seconds) was allowed, and the test terminated if no mounts were recorded within that time (Figure 16), Ejaculation Latency: time (in seconds) taken from first intromission to ejaculation. A maximum time of 30 minutes (1800 seconds) was given, and the test terminated if ejaculation was not achieved in that time (Figure 17), Percentage of males achieving ejaculation within 30 minutes was calculated (Figure 18).
A one-way ANOVA followed by Dunnett's t test was used to compare the fluoxetine+vehicle group and other groups for mount and ejaculatory latencies. Percentage of animals ejaculating was analysed using a Chi-square test followed by Fisher's test. (*: P<0.05, **: P<0.01, ***: P<0.001; n=15-19).

conscious male rat = assay: Penile intracavernosal pressure in the conscious male rat (telemetry); type: in vivo
Experimental: In addition to treating women with FSD, bombesin antagonists will be useful in treating male erectile dysfunction (MED. Both the non-selective BB1/2 antagonists (Compound 1; 10mg/kg sc) and the selective BB1 receptor antagonist (Compound 3; 15mg/kg sc) is pro-erectile in a conscious rat model of penile erection (Figures 24 and 25). Erectile responses were recorded by measuring intracavernosal pressure using surgically implanted telemetric device. The specific details the surgical procedures, data acquisition and analysis can be found in detail in Bemabe 1999.
Compound 1 and compound 3 were dissolved in 50% β-cyclodextrin in saline. They were administered at a dose of 15mg/kg subcutaneously (sc). […] These increases equate to penile erection. Both Compounds 1 and 3 induced a number of erections in a similar manner to those observed with apomorphine or melanotan-II - both of which are clinically proven agents that are effective in the treatment of MED. Moreover the amplitude of the increases observed were similar to those observed with apomorphine or melanotan-II. The mechanism of action is thought to be similar to the effects on female genital flow ie CNS potentiation of the descending neuronal pathways that control penile erection.

[1] = day 4 Compound (1) 15mg/kg or yohimbine 2mg/kg i.p. 1h before tests (vs fluoxetine+vehicle)

`COc1ccc(C2(CNC(=O)[C@](C)(Cc3c[nH]c4ccccc34)NC(=O)Nc3ccc([N+](=O)[O-])cc3)CCCCC2)nc1` [Compound (1), (S) 3-(1H-Indol-3-yl)-N-[1-(5-methoxy-pyridin-2-yl)-cyclohexyl-methyl]-2-methyl-2-[3-(4-nitro-phenyl)-ureido]-propionamide] was tested, and the Ejaculation latency (Sprague Dawley male rats; [1]) was “significantly decreased”, the Mount latency (Sprague Dawley male rats; [1]) was “significantly decreased” and the “percentage of animals ejaculating” value (Sprague Dawley male rats; within 30 minutes, day 4 Compound (1) 15mg/kg or yohimbine 2mg/kg i.p. (vs fluoxetine+vehicle)) was “increasing the percentage of animals ejaculating”. For the same compound, the “erectile response (penile erection)” value (conscious male rat; Compound 1 10mg/kg sc, Compound 3 15mg/kg sc) was “pro-erectile” and the intracavernosal pressure (conscious male rat; one hour after 10mg/kg sc Compound 1, 45 minutes after 15mg/kg sc compound 3) was “significant increases in intracavernosal pressure”.
